Literature values in patent US20170014414A1, “PHARMACEUTICAL COMPOSITION” (ratiopharm GmbH, priority 2014, published 2017).

Conditions: teaching of WO 2012/088033

SMILES | stability of the solvate on exposure to moisture (during the formulation process) | photostability | solubility compared with trametinib DMSO solvate
CC(=O)Nc1cccc(-n2c(=O)n(C3CC3)c(=O)c3c(Nc4ccc(I)cc4F)n(C)c(=O)c(C)c32)c1.C[S+](C)[O-] [trametinib DMSO solvate] | revert to an insoluble desolvated form when exposed to moisture | can suffer from photo-instability | –
CC(=O)Nc1cccc(-n2c(=O)n(C3CC3)c(=O)c3c(Nc4ccc(I)cc4F)n(C)c(=O)c(C)c32)c1 [trametinib in its non-solvated form, N-{3-[3-cyclopropyl-5-(2-fluoro-4-iodophenylamino)-6,8-dimethyl-2,4,7-trioxo-3,4,6,7-tetrahydro-2H-pyrido[4,3-d]pyrimidin-1-yl]phenyl}acetamide] | – | – | much less soluble than trametinib DMSO solvate
